For 13 molecules, logP results are on record in ChEMBL document CHEMBL1795329, “QSPR modeling of octanol/water partition coefficient for vitamins by optimal descriptors calculated with SMILES” (Eur J Med Chem, 2008).

Experiment in one data set: not given
As to conditions: octanol/water.
As for `C=C1CC[C@H](O)C/C1=C/C=C1\CCC[C@]2(C)[C@@H]([C@H](C)/C=C/[C@H](C)C(C)C)CC[C@@H]12` [ERGOCALCIFEROL], the logP – broadly, the decadic logarithm of the partition coefficient of the neutral form, usually between octanol and water – was 10.44.
As for `C[C@@H]1O[C@@H](OC[C@H]2O[C@@H](Oc3c(-c4ccc(O)c(O)c4)oc4cc(O)cc(O)c4c3=O)[C@H](O)[C@@H](O)[C@@H]2O)[C@H](O)[C@H](O)[C@H]1O` [RUTIN], the logP is -2.02.
For `ClC(Cl)C(Cl)(Cl)Cl` [PENTACHLOROETHANE], the lipophilicity (logP) came to 3.627.
The molecule `C=C1CC[C@H](O)C/C1=C/C=C1\CCC[C@]2(C)[C@@H]([C@H](C)CCCC(C)C)CC[C@@H]12` [CHOLECALCIFEROL] yielded a logP of 10.24.
`CC1=C(C/C=C(\C)CCC[C@H](C)CCC[C@H](C)CCCC(C)C)C(=O)c2ccccc2C1=O` [PHYTONADIONE] registered a logP of 11.71.

Another data set can be described thus: physchem. As to conditions: octanol/water.
`Cc1cc(C)c(C)c(C)c1` registered a logP of 4.74.
For the molecule `C1CCCCCCC1` [CYCLOOCTANE], the logP turned out to be 4.47.
`Clc1cc(Cl)c(-c2ccccc2)c(Cl)c1` yielded a lipophilicity (logP) of 6.17.
`Cc1cc2ccccc2c2ccc3ccccc3c12` gave a logP of 6.31.
For the molecule `C1=CCCC1` [CYCLOPENTENE], the logP was found to be 2.25.
As to `Clc1ccc(Cl)c(Cl)c1`, the lipophilicity (logP) came to 4.28.
With `CC(Cl)(Cl)Cl` [TRICHLOROETHANE], the logP is 2.48.
Consider `CC(C)(CO)[C@@H](O)C(=O)NCCC(=O)O` [PANTOTHENIC ACID], for which the logP is -1.69.
